Active and inactive are the calls of the source. No cut-off for these calls is given here.
Tests used:
[1] = (§1) Cytotoxicity against mouse NS1 cells; type: functional
Bacillus subtilis = assay: Antibacterial activity against Bacillus subtilis; type: functional, organism-based
NS1 = assay: as §1; type: functional
Candida albicans = assay: Antifungal activity against Candida albicans; type: functional, organism-based

Q: Which LD99 [1] does the source give for `C=C1[C@@H](C)[C@H]2[C@H](Cc3c[nH]c4ccccc34)NC(=O)[C@]23C(=O)/C=C/C(=O)[C@H](OC(C)=O)/C(C)=C\[C@@H](C)C/C=C/[C@H]3[C@@H]1O` here?
A: The LD99 was 0.8 µg/mL.

Q: For `CC(O)CCCCC(C)C1CC(O)C(C)C(=O)N[C@H](C(C)C)C(=O)N2CCC[C@H]2C(=O)O1` (stereo not given in full), which Activity (Bacillus subtilis) is on record?
A: Its Activity is “inactive”.

Q: And the Activity (NS1)?
A: The Activity was “inactive”.

Q: And the Activity (Candida albicans)?
A: Its Activity is “inactive”.

Q: Which results are given for `CC[C@@H](C)[C@H]1NC(=O)C(C)C(O)CC(C(C)CCCCC(C)O)OC(=O)[C@@H]2CCCN2C1=O` (stereo not given in full)?
A: Activity (Bacillus subtilis): inactive; Activity (NS1): inactive; Activity (Candida albicans): inactive

Q: With `C/C=C/c1cccc(O)c1CO` as the molecule, how does the Activity (NS1) read?
A: The Activity was “inactive”.

Q: For `CC(=O)O[C@H]1C(=O)/C=C/C(=O)[C@@]23C(=O)N[C@@H](Cc4c[nH]c5ccccc45)[C@@H]2C(C)=C(C)[C@@H](O)[C@@H]3/C=C/C[C@H](C)/C=C\1C` [19-O-ACETYLCHAETOGLOBOSIN B], which LD99 [1] is on record?
A: The LD99 was 1.6 µg/mL.

Q: With `CC(O)CCCCC(C)C1CC(O)C(C)C(=O)N[C@H](Cc2ccccc2)C(=O)N2CCC[C@H]2C(=O)O1` (stereo not given in full) as the molecule, how does the Activity (Bacillus subtilis) read?
A: Its Activity is “inactive”.

Q: What about the Activity (NS1) of the same molecule?
A: Its Activity is “inactive”.

Q: What about the Activity (Candida albicans) of the same molecule?
A: The Activity was “inactive”.

Q: For `CC(=O)CCCCC(C)C1CC(O)C(C)C(=O)N[C@H](Cc2ccccc2)C(=O)N2CCC[C@H]2C(=O)O1` (stereo not given in full), which Activity (Bacillus subtilis) is on record?
A: The Activity was “inactive”.

Q: What about the Activity (NS1) of the same molecule?
A: Its Activity is “inactive”.

Q: And the Activity (Candida albicans)?
A: The Activity was “inactive”.
